Assay results reported in US20200397691A1, “NICOTINE MOUTH SPRAY” (Fertin Pharma A/S, priority 2017, published 2020).

Details: nicotine concentration increased from 100 microgram/mL to 14,000 microgram/mL

With `CN1CCCC1c1cccnc1` (stereo not shown) [nicotine] the “Decrease of permeability of nicotine across the buccal mucosa (factor)” value was “two”.
